system: HBV viral load production from HepAD38 cells; test: Viral production from HepAD38 cells: viral load in supernatant by qPCR of the HBV core sequence; format: cell-based; conditions: 5 days incubation, qPCR of supernatant HBV DNA vs DMSO control, read-out: viral load lowering EC50 (Activity)
Method: Assay Measuring Activity of Test Compounds on Viral Production from HepAD38 Cells
HepAD38 cells grown in a T-150 flask (Corning, cat #: 430825) with Growth Medium (DMEM/F12 […] (Hyclone, cat #: SH30023.02), 1× Pen/Strep (Invitrogen, cat #: 15140-122), 10% FBS (Tissue Culture Biologics, cat #: 101), […] G418 (Alfa Aesar, cat #: J62671), 1 μg/mL Tetracycline (Teknova, cat #: T3320)) were detached with 0.25% trypsin-EDTA (Invitrogen, cat #: 25200-056). Tetracycline-free treatment medium (15 mL DMEM/F12 (1:1) 1× Pen/step, with 2% FBS, Tet-system approved (Clontech, cat #: 631106) were then added to mix, transferred into a 50 ml conical tube (Falcon, cat #: 21008-918,) and spun at 1300 rpm for 5 min. Pelleted cells were then re-suspended/washed with 50 mL of 1×DPBS (Invitrogen, cat #: 14190-136) 2 times and 50 mL treatment medium twice. HepAD38 cells were then re-suspended with 10 mL of treatment medium, syringed and counted. Wells of 96-well clear bottom TC plate (Corning, cat #: 3904,) were seeded at 50,000 cells/well in 180 μL of treatment medium, and 20 μL of either 10% DMSO (Sigma, cat #: D4540) as controls or a 10× solution of test compounds in 10% DMSO in treatment media was added for a final compound concentration starting at 10 μM, and plates were incubated in 5% CO2 incubator at 37° C. for 5 days.
Subsequently viral load production was assayed by quantitative PCR (qPCR) of the HBV core sequence. PCR reaction mixture containing forward primers HBV-f 5′-CTGTGCCTTGGGTGGCTIT-3′ (IDT DNA), Reverse primers HBV-r 5′-[…]-3′ (IDT DNA), Fluorescent TaqMan™ Probes HBV-probe 5′-FAM/AGCTCCAAA/ZEN/[…]/3IABkFQ-3′ (IDT DNA), 10 μL/well of PerfeCTa® qPCR ToughMix® (Quanta Biosciences, Cat #: 95114-05K), and 6 μL/well of DEPC water (Alfa Aesar, cat #: J62087) was prepared. Four μL of supernatant was added to 16 μL of the reaction mixture in a qPCR plate (Applied Biosytems, Cat #: 4309849), sealed with a film (Applied Biosystems, Cat #: 4311971), centrifuged for a few seconds, and subsequently run on an Applied Biosystems VIIA7. The PCR mixture was incubated at 45° C. for 5 min, then 95° C. for 10 min, followed by 40 cycles of 10 seconds at 95° C. and 20 seconds at 60° C. Viral load was quantified against known HBV DNA standards by using ViiA™ 7 Software. Viral load in the supernatant from wells with treated cells were compared against viral load in supernatant from DMSO control wells (≥3 per plate). Cell viability assay was performed with CellTiter-Glo Luminescent Cell Viability Assay (Promega, cat #: G7573) with modification. Mixed appropriate amount of CellTiter-Glo (CTG) 1×DPBS in a 1:1 ratio, added 100 uL of the mixture to each well followed completely removal of all supernatant in each well without touching cell surface. Incubated the plate at room temperature for 10 min on an orbital shaker, and then read the plate with a plate reader (TECAN M1000 or Envision). EC50 or CC50 values were calculated through curve-fitting of the four-parameter nonlinear-logistic-regression model (GraphPad Prism or Dotmatics). CC50 values were all >10 μM.

First: Cc1ccccc1-c1nc(C)c(CNC(=O)C2CC(C(=O)Nc3ccc(F)c(Cl)c3)N(C)S(=O)(=O)N2)s1 (single isomer, unassigned) [1017-ISOMER-B, N3-(3-chloro-4-fluoro-phenyl)-2-methyl-N5-[[4-methyl-2-(o-tolyl)thiazol-5-yl]methyl]-1,1-dioxo-1,2,6-thiadiazinane-3,5-dicarboxamide]
Second: Cc1nc(-c2ccccn2)sc1CNC(=O)C1CC(C(=O)Nc2ccc(F)c(Cl)c2)N(C)S(=O)(=O)N1 (single isomer, unassigned) [1065-ISOMER-B, N3-(3-chloro-4-fluoro-phenyl)-2-methyl-N5-[[4-methyl-2-(2-pyridyl)thiazol-5-yl]methyl]-1,1-dioxo-1,2,6-thiadiazinane-3,5-dicarboxamide]
The EC50 of the first is higher: 100 to 10000 nM for the first, under 50 nM for the second. The second is the more potent here.

First: CN1C(C(=O)Nc2ccc(F)c(Cl)c2)CC(C(=O)NC2CCN(c3ccnc(Br)c3)CC2)NS1(=O)=O (single isomer, unassigned) [1036-ISOMER-B, N5-[1-(2-bromo-4-pyridyl)-4-piperidyl]-N3-(3-chloro-4-fluoro-phenyl)-2-methyl-1,1-dioxo-1,2,6-thiadiazinane-3,5-dicarboxamide]
Second: CN1C(C(=O)Nc2ccc(F)c(Cl)c2)CC(C(=O)N[C@@H]2CCN(c3ccnc(Cl)c3)C2)NS1(=O)=O (single isomer, unassigned) [1055-R-ISOMER-B]
The EC50 of the first is higher: 100 to 10000 nM for the first, under 50 nM for the second.

CN1C(C(=O)Nc2ccc(F)c(Cl)c2)CC(C(=O)NC2CCN(c3ccnc(-c4ccccc4)c3)CC2)NS1(=O)=O (single isomer, unassigned) [1050-ISOMER-B, N3-(3-chloro-4-fluoro-phenyl)-2-methyl-1,1-dioxo-N5-[1-(2-phenyl-4-pyridyl)-4-piperidyl]-1,2,6-thiadiazinane-3,5-dicarboxamide] and Cc1nc(-c2ccc(F)cc2)sc1CNC(=O)C1CC(C(=O)Nc2ccc(F)c(Cl)c2)N(C)S(=O)(=O)N1 (single isomer, unassigned) [1056-ISOMER-B, N3-(3-chloro-4-fluoro-phenyl)-N5-[[2-(4-fluorophenyl)-4-methyl-thiazol-5-yl]methyl]-2-methyl-1,1-dioxo-1,2,6-thiadiazinane-3,5-dicarboxamide] cannot be ordered by EC50: under 50 nM for the first, under 50 nM for the second.

same assay, conditions: Hepatitis B virus, HePAD38, 120 h, 5 days incubation, qPCR of supernatant HBV DNA vs DMSO control, read-out: viral load lowering EC50 (Activity)

Compared with Cc1nc(-c2ccccc2F)sc1CNC(=O)C1CC(C(=O)Nc2ccc(F)c(Cl)c2)N(C)S(=O)(=O)N1 (single isomer, unassigned) [1016-ISOMER-B, N3-(3-chloro-4-fluoro-phenyl)-N5-[[2-(2-fluorophenyl)-4-methyl-thiazol-5-yl]methyl]-2-methyl-1,1-dioxo-1,2,6-thiadiazinane-3,5-dicarboxamide], Cc1ccccc1-c1nc(C)c(CNC(=O)C2CC(C(=O)Nc3ccc(F)c(Cl)c3)N(C)S(=O)(=O)N2)s1 (single isomer, unassigned) [1017-ISOMER-A, N3-(3-chloro-4-fluoro-phenyl)-2-methyl-N5-[[4-methyl-2-(o-tolyl)thiazol-5-yl]methyl]-1,1-dioxo-1,2,6-thiadiazinane-3,5-dicarboxamide] is lower in EC50: 50 to 100 nM for the first, under 50 nM for the second.

CN1C(C(=O)Nc2ccc(F)c(Cl)c2)CC(C(=O)NC2CCN(c3ccnc(Br)c3)CC2)NS1(=O)=O (single isomer, unassigned) [1036-ISOMER-A, N5-[1-(2-bromo-4-pyridyl)-4-piperidyl]-N3-(3-chloro-4-fluoro-phenyl)-2-methyl-1,1-dioxo-1,2,6-thiadiazinane-3,5-dicarboxamide] and CN1C(C(=O)Nc2ccc(F)c(Cl)c2)CC(C(=O)NC2CCN(c3ccnc(F)c3)CC2)NS1(=O)=O (single isomer, unassigned) [1040-ISOMER-A, N3-(3-chloro-4-fluoro-phenyl)-N5-[1-(2-fluoro-4-pyridyl)-4-piperidyl]-2-methyl-1,1-dioxo-1,2,6-thiadiazinane-3,5-dicarboxamide] cannot be ordered by EC50: under 50 nM for the first, under 50 nM for the second.

CN1C(C(=O)Nc2ccc(F)c(Cl)c2)CC(C(=O)NC2CCN(c3ccnc(-c4ccccc4)c3)CC2)NS1(=O)=O (single isomer, unassigned) [1050-ISOMER-A, N3-(3-chloro-4-fluoro-phenyl)-2-methyl-1,1-dioxo-N5-[1-(2-phenyl-4-pyridyl)-4-piperidyl]-1,2,6-thiadiazinane-3,5-dicarboxamide] and CN1C(C(=O)Nc2ccc(F)c(Cl)c2)CC(C(=O)N[C@@H]2CCN(c3ccnc(Cl)c3)C2)NS1(=O)=O (single isomer, unassigned) [1055-R-ISOMER-A] fall in the same range of EC50: 100 to 10000 nM for the first, 100 to 10000 nM for the second.

CN1C(C(=O)Nc2ccc(F)c(Cl)c2)CC(C(=O)N[C@H]2CCN(c3ccnc(Cl)c3)C2)NS1(=O)=O (single isomer, unassigned) [1055-S-ISOMER-A] and CN1C(C(=O)Nc2ccc(F)c(Cl)c2)CC(C(=O)N[C@H](c2ccccc2)c2cnc(Cl)s2)NS1(=O)=O (single isomer, unassigned) [1066-ISOMER-A] fall in the same range of EC50: 100 to 10000 nM for the first, 100 to 10000 nM for the second.

Cc1nc(-c2ccc(F)cc2)sc1CNC(=O)C1CC(C(=O)Nc2ccc(F)c(Cl)c2)N(C)S(=O)(=O)N1 (single isomer, unassigned) [1056-ISOMER-A, N3-(3-chloro-4-fluoro-phenyl)-N5-[[2-(4-fluorophenyl)-4-methyl-thiazol-5-yl]methyl]-2-methyl-1,1-dioxo-1,2,6-thiadiazinane-3,5-dicarboxamide] and Cc1nc(-c2ccccn2)sc1CNC(=O)C1CC(C(=O)Nc2ccc(F)c(Cl)c2)N(C)S(=O)(=O)N1 (single isomer, unassigned) [1065-ISOMER-A, N3-(3-chloro-4-fluoro-phenyl)-2-methyl-N5-[[4-methyl-2-(2-pyridyl)thiazol-5-yl]methyl]-1,1-dioxo-1,2,6-thiadiazinane-3,5-dicarboxamide] fall in the same range of EC50: 100 to 10000 nM for the first, 100 to 10000 nM for the second.

Cc1cn(-c2ccccc2)nc1CNC(=O)C1CC(C(=O)Nc2ccc(F)c(Cl)c2)N(C)S(=O)(=O)N1 (single isomer, unassigned) [1057-ISOMER-A, N3-(3-chloro-4-fluoro-phenyl)-2-methyl-N5-[(4-methyl-1-phenyl-pyrazol-3-yl)methyl]-1,1-dioxo-1,2,6-thiadiazinane-3,5-dicarboxamide] and CN1C(C(=O)Nc2ccc(F)c(Cl)c2)CC(C(=O)N[C@H](c2ccccc2)c2cnc(Cl)s2)NS1(=O)=O (single isomer, unassigned) [1066-ISOMER-C] cannot be ordered by EC50: under 50 nM for the first, under 50 nM for the second.

First: CN1C(C(=O)Nc2ccc(F)c(Cl)c2)CC(C(=O)N[C@@H](c2ccccc2)c2cnc(Cl)s2)NS1(=O)=O (single isomer, unassigned) [1066-ISOMER-D]
Second: CN1C(C(=O)Nc2ccc(F)c(Cl)c2)CC(C(=O)NC(c2ccccc2)c2cnc(-c3ccccc3)s2)NS1(=O)=O (single isomer, unassigned) [1067-ISOMER-A, N3-(3-chloro-4-fluoro-phenyl)-2-methyl-1,1-dioxo-N5-[phenyl-(2-phenylthiazol-5-yl)methyl]-1,2,6-thiadiazinane-3,5-dicarboxamide]
The EC50 of the first is higher: 100 to 10000 nM for the first, under 50 nM for the second.

First: CN1C(C(=O)Nc2ccc(F)c(Cl)c2)CC(C(=O)N[C@@H](c2ccccc2)c2cnc(-c3ccccc3)s2)NS1(=O)=O (single isomer, unassigned) [1067-ISOMER-B]
Second: CN1C(C(=O)Nc2ccc(F)c(Cl)c2)C[C@@H](C(=O)N[C@H](c2ccccc2)c2cnc(-c3ccccc3)s2)NS1(=O)=O (single isomer, unassigned) [1067-ISOMER-C]
The EC50 of the first is higher: 100 to 10000 nM for the first, under 50 nM for the second. The second is the more potent here.

Molecule CN1C(C(=O)Nc2ccc(F)c(Cl)c2)CC(C(=O)N[C@@H](c2ccccc2)c2cnc(-c3ccccc3)s2)NS1(=O)=O (single isomer, unassigned) [1067-ISOMER-D] has an EC50 of 100 to 10000 nM.

From US20230075856A1, “CYCLIC SULFAMIDE COMPOUNDS FOR TREATMENT OF HBV” (Assembly Biosciences, Inc., priority 2018, published 2023)
